Consider 1 compound from publication PMC3454376, “Salidroside Improves Behavioral and Histological Outcomes and Reduces Apoptosis via PI3K/Akt Signaling after Experimental Traumatic Brain Injury” (PLoS ONE, 2012).

The subject of data set [1] is mice subjected to controlled cortical impact injury. Kind of data set: Brain water content (brain edema) after CCI. It counts as in vivo. Conditions: day 1, vehicle 84.5±1.2%. As for the experimental part: All animal procedures were approved by the Animal Research Committee at Cheng Hsin General Hospital (Animal permit number […] 101-08), and all procedures complied with the Guide for the Care and Use of Laboratory Animals published by the US National Institutes of Health (NIH Publication No. 85-23, revised 1996). Animals were housed under a 12-h light/dark cycle and at constant temperature (21-25°C) and humidity (45-50%). They were allowed free access to pellet chow and water. TBI in mice was induced by a CCI injury model as previously described. Briefly, 8-week-old male C57BL/6 mice (weighing 22-25 g) were anesthetized through the use of intraperitoneal injection of sodium pentobarbital (65 mg/kg; Rhone Merieux, Harlow, UK) and placed in a stereotaxic frame. A 5 mm craniotomy was performed over the right parietal cortex, centered on the coronal suture and 0.1 mm lateral to the sagittal suture, and injury to dura was avoided. […] Body temperature was monitored throughout the surgery by a rectal probe; temperature was maintained at 37.0±0.5°C using a heated pad. […] To determine the optimal dose of salidroside, a pilot study was performed using 2 different doses (20 and 50 mg/kg) administered 10 min after injury, and neurological deficits and tissue damage were evaluated as the main outcomes. […]

Data set [2] in a line: Metabolic characteristics: serum BUN, CRE, ALT. It counts as in vivo, mice. As to conditions: for BUN / CRE: mean ± SEM, n = 4–5 mice/group. As for the experimental part:
Three sets of experiments were performed. The first set was to investigate the protective effects of salidroside. All animals were randomized into 1 of 3 groups (sham injury, CCI + vehicle, CCI + SALD 20). Surgery/injury, behavioral testing, and tissue analyses were performed by different individuals. Behavioral testing and tissue analyses were performed by individuals blinded to the treatment group. Salidroside (Cayman Chemical, Ann Arbor, MI, USA) dissolved in normal saline (0.25 mL) or a corresponding volume of vehicle (saline) was administered intraperitoneally 10 min following injury. Testing after injury was completed as follows: 1) behavioral testing at days 1, 4, 7, 14, 21, and 28 (n = 8–10 mice/group); 2) cresyl violet staining at day 28 (n = 9 mice/group); 3) histology, determination of brain water content, and western blot analysis at day 1 or 3 (n = 5–6 mice/group). To determine the optimal dose of salidroside, a pilot study was performed using 2 different doses (20 and 50 mg/kg) administered 10 min after injury, and neurological deficits and tissue damage were evaluated as the main outcomes. […] The second set of experiment was to assess the effect of the inhibition of PI3K/Akt with the specific PI3K inhibitor, LY294002 (Cell Signaling Technology, Danvers, MA, USA), on salidroside effects. Animals were randomized into 4 groups. Mice received either: 1) icv pretreatment of LY294002 followed by SALD 20 after CCI (S20Y group); or 2) icv pretreatment of saline (vehicle control) followed by SALD 20 after CCI (S20V group). 3) Mice were infused icv with saline and were subjected to sham injury. 4) Mice were infused icv with LY294002 and were subjected to sham injury. Testing after injury was completed as follows: 1) cresyl violet staining at day 28 (n = 6 mice/group); 2) western blot analysis at day 1 (n = 6 mice/group). The third set of experiment was performed to examine the neuroprotective time window afforded by salidroside. Mice received intraperitoneal SALD 20 or vehicle (saline) at 3 or 6 h following CCI and were sacrificed 1 day later for FJB staining and western blot analysis (n = 6 mice/group).
Following terminal anesthesia, venous blood was collected via direct right atrial puncture. The obtained blood was centrifuged (3500 rpm for 5 min), and the serum was stored at −20°C until analysis. A chemistry analyzer (Synchron Clinical System LX20; Beckman Coulter, Fullerton, CA, USA) was used to measure serum BUN and CRE to assess renal function, and ALT to assess liver function.

As to `OC[C@H]1O[C@@H](OCCc2ccc(O)cc2)[C@H](O)[C@@H](O)[C@@H]1O` [SALD, salidroside], the “brain water content, ipsilateral hemisphere” value is on record as 81.0±0.6% in data set [1] (20 mg/kg ip 10 min after CCI, sham 80.7±0.6%, P<0.05) and 82.2±1.1% in data set [1] (50 mg/kg ip 10 min after CCI, not significant). The “plasma concentrations of BUN, CRE, ALT (effect of treatment)” value in data set [2] (20 mg/kg) is given as “did not alter”. For the same compound, the BUN in data set [2] (SALD 20 mg/kg) came to 23.2 ± 2.49 mg/dL; in data set [2] (SALD 50 mg/kg), 28.06 ± 4.5 mg/dL. Also, the CRE was 0.17 ± 0.01 mg/dL in data set [2] (SALD 20 mg/kg) and 0.16 ± 0.04 mg/dL in data set [2] (SALD 50 mg/kg).
